Key:
Assay type in all cases: biochemical
SHV-5 β-lactamase = biological target: T1, SHV-5 β-lactamase (Klebsiella pneumoniae, UniProt P0A3M1); assay: β-Lactamase inhibition enzyme assay, SHV-5
T1 construct: made in house; host or cells: E. coli BL21(DE3)
Protocol: (§1) For SHV-5, Kpc-2, p99AmpC and OXA-1 β-lactamases, E. coli BL21(DE3) bacterial cells carrying expression plasmids (expressed as native untagged proteins) for the individual β-lactamases were grown in 1 L of Superbroth (Teknova Inc. Hollister, Calif.) supplemented with 100 μg/ml kanamycin selection and 1×5052 (0.5% glycerol, 0.05% glucose and 0.2% α-lactose) at 35° C. for 18-20 hours. Cells were harvested by centrifugation (4,000×g, 4° C., 20 min), resuspended in 50 ml of 10 mM HEPES pH 7.5 ( 1/20 of the initial volume). The cells were lysed by sonication (5 pulses of 45 seconds) at 45 W on ice. The lysates were clarified by centrifugation at 10,000×g for 40 minutes at 4° C. Samples were diluted 5-fold in 50 mM sodium acetate pH 5.0, stored overnight at 4° C., after which they were centrifuged at 10,000×g for 30 minutes to clarify, and filtered through 0.45 μm filters. The samples were loaded onto a 5 ml Capto S sepharose cation exchange column (GE Healthcare) pre-equilibrated with 50 mM sodium acetate pH 5.0. The column was washed with 5 column volumes of 50 mM sodium acetate pH 5.0 to wash out unbound protein and a linear gradient of NaCl (0 to 500 mM) was used to elute the protein (over 16 CV) from the column. Fractions were assayed for β-lactamase activity using Centa (Calbiochem, Gibbstown, N.J.) or Nitrocefin (EMD Millipore chemicals, Darmstadt, Germany) as a reporter β-lactamase substrate for activity in the isolated fractions. Active fractions were pooled, concentrated and further purified by gel filtration chromatography on a Superdex 75 prep grade gel filtration column (GE Healthcare, Piscataway, N.J.) pre-equilibrated in 50 mM Hepes pH 7.5, 150 mM NaCl. Active fractions were pooled concentrated, quantitated by BCA protein determination (Thermo Scientific, Rockford, Ill.), dialyzed into PBS and frozen at −80° C. in 20% glycerol until use.
(§2) An equal volume of diluted enzyme stock was added, and the plates were incubated at 37° C. for 15 min. Nitrocefin was used as substrate for p99 AmpC, VIM-2 and OXA-1 and dispensed into each well at a final concentration of 100 μM. Absorbance at 486 nm was immediately monitored for 10 min using a Biotek Powerwave XS2 microplate spectrophotometer using the GEN5 softweare package (Biotek Instruments, Winooski Vt.). In an analogous fashion, imipenem was used as substrate for Kpc-2 and Cefotaxime was used for SHV-5, while changes in absorbance upon hydrolysis of the β-lactam ring were monitored at 300 nm and 260 nm respectively in UV-transparent 96-well microtiter assay plates. Maximum rates of hydrolysis were compared to those in control wells (without inhibitors), and percentages of enzyme inhibition were calculated for each concentration of inhibitor. The concentration of inhibitor needed to reduce the initial rate of hydrolysis of substrate by 50% (IC50) was calculated as the residual activity of β-lactamase at 486 nm using GraFit version 7 kinetics software package (Erithacus Software, Surrey, UK).

[1] = biological target: T2, VIM-2 metallo β-lactamase (Pseudomonas aeruginosa, UniProt Q9K2N0); assay: β-Lactamase inhibition enzyme assay, VIM-2; conditions: Nitrocefin 100 μM as substrate, 486 nm; 15 min at 37° C. with enzyme, PBS pH 7.4; read-out: Class B VIM-2 IC50
T2 construct: made in house; host or cells: E. coli BL21(DE3)
Protocol: as §1
For Vim-2 metallo β-lactamase, the procedure was identical with the following exceptions, first the protein was not pH adjusted to pH 5 with 50 mM sodium acetate, second, the chromatography step was changed to a 5 ml Q sepharose anion exchange column pre-equilibrated with 50 mM Hepes pH 7.5, and elution of the protein was achieved by a linear gradient of NaCl (0-600 mM). Finally, the VIM-2 purification required a second run (3rd step) on the Q sepharose anion exchange column to achieve acceptable purity (>90%).
as §2

OXA-1 β-lactamase = biological target: T3, OXA-1 β-lactamase (Escherichia coli, UniProt P13661); assay: β-Lactamase inhibition enzyme assay, OXA-1; conditions: Nitrocefin 100 μM as substrate, 486 nm; 15 min at 37° C. with enzyme, PBS pH 7.4; read-out: Class D OXA-1 IC50
T3 construct: made in house; host or cells: E. coli BL21(DE3)
T3 sequence (P13661 26-276): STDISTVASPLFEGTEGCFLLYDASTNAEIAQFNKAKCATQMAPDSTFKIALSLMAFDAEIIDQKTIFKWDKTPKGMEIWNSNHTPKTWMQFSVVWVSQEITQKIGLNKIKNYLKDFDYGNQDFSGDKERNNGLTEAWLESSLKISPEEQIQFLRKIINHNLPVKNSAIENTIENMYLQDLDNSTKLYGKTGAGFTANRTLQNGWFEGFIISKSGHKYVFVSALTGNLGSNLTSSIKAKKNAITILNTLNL
Protocol: as §1, §2

p99 AmpC β-lactamase = biological target: T4, p99 AmpC β-lactamase (Enterobacter cloacae, UniProt P05364); assay: β-Lactamase inhibition enzyme assay, p99 AmpC
T4 construct: made in house; host or cells: E. coli BL21(DE3)
T4 sequence (P05364 21-381): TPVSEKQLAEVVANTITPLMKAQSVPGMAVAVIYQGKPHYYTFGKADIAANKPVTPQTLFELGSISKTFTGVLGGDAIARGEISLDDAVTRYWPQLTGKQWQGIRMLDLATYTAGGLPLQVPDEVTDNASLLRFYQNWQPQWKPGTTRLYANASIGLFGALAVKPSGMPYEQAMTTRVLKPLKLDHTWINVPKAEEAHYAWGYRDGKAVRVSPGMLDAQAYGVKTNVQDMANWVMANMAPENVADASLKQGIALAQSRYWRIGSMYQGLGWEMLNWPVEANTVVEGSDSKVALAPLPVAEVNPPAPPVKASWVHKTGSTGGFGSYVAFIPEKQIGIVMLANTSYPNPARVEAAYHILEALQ
Protocol: as §1, §2

KPC-2 β-lactamase = biological target: T5, KPC-2 β-lactamase (Klebsiella pneumoniae, UniProt Q9F663); assay: β-Lactamase inhibition enzyme assay, KPC-2; conditions: imipenem as substrate, 300 nm; 15 min at 37° C. with enzyme, PBS pH 7.4; read-out: Class A KPC-2 IC50
T5 construct: made in house; host or cells: E. coli BL21(DE3)
T5 sequence (Q9F663 25-293, looked up): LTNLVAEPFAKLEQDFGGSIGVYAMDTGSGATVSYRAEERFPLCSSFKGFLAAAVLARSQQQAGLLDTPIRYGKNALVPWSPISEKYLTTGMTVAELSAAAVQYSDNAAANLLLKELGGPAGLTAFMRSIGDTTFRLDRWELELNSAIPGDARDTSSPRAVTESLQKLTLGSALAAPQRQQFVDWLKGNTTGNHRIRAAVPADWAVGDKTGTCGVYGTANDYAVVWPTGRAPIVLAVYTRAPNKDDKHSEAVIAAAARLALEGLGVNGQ
Protocol: as §1, §2

T1 sequence (P0A3M1 22-286): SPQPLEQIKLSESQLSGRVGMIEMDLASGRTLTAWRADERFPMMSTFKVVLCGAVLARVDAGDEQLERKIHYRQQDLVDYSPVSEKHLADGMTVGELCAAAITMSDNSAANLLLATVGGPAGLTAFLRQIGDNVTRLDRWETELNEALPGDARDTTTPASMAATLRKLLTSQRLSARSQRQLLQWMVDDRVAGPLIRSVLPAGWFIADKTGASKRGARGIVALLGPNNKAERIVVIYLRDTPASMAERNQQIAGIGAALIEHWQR

Compound | IC50 (SHV-5 β-lactamase) | IC50 [1] | IC50 (OXA-1 β-lactamase) | IC50 (p99 AmpC β-lactamase) | IC50 (KPC-2 β-lactamase)
CC(C)NCc1cc(C(=O)N[C@H]2Cc3cccc(C(=O)O)c3OB2O)ccc1CN [Example 55, (R)-3-(4-(aminomethyl)-3-((isopropylamino)methyl)benzamido)-2-hydroxy-3,4-dihydro-2H-benzo[e][1,2]oxaborinine-8-carboxylic acid] | 100 to 1000 nM | 100 to 1000 nM | 100 to 1000 nM | 100 to 1000 nM | 1000 to 10000 nM
NCc1ccc(CC(=O)N[C@H]2Cc3cccc(C(=O)O)c3OB2O)cc1CN [Example 20, (R)-3-(2-(3,4-bis(aminomethyl)phenyl)acetamido)-2-hydroxy-3,4-dihydro-2H-benzo[e][1,2]oxaborinine-8-carboxylic acid] | < 100 nM | < 100 nM | < 100 nM | < 100 nM | < 100 nM
O=C(O)c1cccc2c1OB(O)[C@@H](NC(=O)c1cccc3cc[nH]c13)C2 [Example 31, (R)-2-hydroxy-3-(1H-indole-7-carboxamido)-3,4-dihydro-2H-benzo[e][1,2]oxaborinine-8-carboxylic acid] | 100 to 1000 nM | 1000 to 10000 nM | < 100 nM | < 100 nM | < 100 nM
NCc1ccc(C(=O)N[C@H]2Cc3cccc(C(=O)O)c3OB2O)cc1CN [Example 14, (R)-3-(3,4-bis(aminomethyl)benzamido)-2-hydroxy-3,4-dihydro-2H-benzo[e][1,2]oxaborinine-8-carboxylic acid] | 100 to 1000 nM | < 100 nM | < 100 nM | < 100 nM | 100 to 1000 nM
NCc1cc(C(=O)N[C@H]2Cc3cccc(C(=O)O)c3OB2O)cnc1CN [Example 62, (R)-3-(5,6-bis(aminomethyl)nicotinamido)-2-hydroxy-3,4-dihydro-2H-benzo[e][1,2]oxaborinine-8-carboxylic acid] | < 100 nM | 100 to 1000 nM | < 100 nM | < 100 nM | < 100 nM
CC(C)NCc1ccc(C(=O)N[C@H]2Cc3cccc(C(=O)O)c3OB2O)cc1CNC(C)C [Example 56, (R)-3-(3,4-bis((isopropylamino)methyl)benzamido)-2-hydroxy-3,4-dihydro-2H-benzo[e][1,2]oxaborinine-8-carboxylic acid] | < 100 nM | 100 to 1000 nM | < 100 nM | < 100 nM | < 100 nM
O=C(Cc1ccc(O)c(O)c1)N[C@H]1Cc2cccc(C(=O)O)c2OB1O [Example 38, (R)-3-(2-(3,4-dihydroxyphenyl)acetamido)-2-hydroxy-3,4-dihydro-2H-benzo[e][1,2]oxaborinine-8-carboxylic acid] | < 100 nM | 100 to 1000 nM | < 100 nM | < 100 nM | < 100 nM
O=C(O)c1cccc2c1OB(O)[C@@H](NC(=O)c1c[nH]c3ncccc13)C2 [Example 8, (R)-2-hydroxy-3-(1H-pyrrolo[2,3-b]pyridine-3-carboxamido)-3,4-dihydro-2H-benzo[e][1,2]oxaborinine-8-carboxylic acid] | < 100 nM | 1000 to 10000 nM |  | < 100 nM | 100 to 1000 nM
O=C(O)c1cccc2c1OB(O)[C@@H](NC(=O)C(F)(F)c1ccccc1)C2 [Example 2, (R)-3-(2,2-difluoro-2-phenylacetamido)-2-hydroxy-3,4-dihydro-2H-benzo[e][1,2]oxaborinine-8-carboxylic acid] | < 100 nM | 1000 to 10000 nM | < 100 nM | < 100 nM | < 100 nM
O=C(N[C@H]1Cc2cccc(C(=O)O)c2OB1O)c1ccc2c(c1)CCNC2 [Example 5, (R)-3-(2-borono-2-(1,2,3,4-tetrahydroisoquinoline-6-carboxamido)ethyl)-2-hydroxybenzoic acid] | < 100 nM | 100 to 1000 nM | < 100 nM | < 100 nM | < 100 nM
NC1=NCc2ccc(C(=O)N[C@H]3Cc4cccc(C(=O)O)c4OB3O)cc2CN1 [Example 17, (R)-3-(3-amino-4,5-dihydro-1H-benzo[e][1,3]diazepine-7-carboxamido)-2-hydroxy-3,4-dihydro-2H-benzo[e][1,2]oxaborinine-8-carboxylic acid] | < 100 nM | < 100 nM | < 100 nM | < 100 nM | < 100 nM
CN1CCc2cc(C(=O)N[C@H]3Cc4cccc(C(=O)O)c4OB3O)ccc2C1 [Example 7, (R)-2-hydroxy-3-(2-methyl-1,2,3,4-tetrahydroisoquinoline-6-carboxamido)-3,4-dihydro-2H-benzo[e][1,2]oxaborinine-8-carboxylic acid] | < 100 nM | 100 to 1000 nM | 100 to 1000 nM | < 100 nM | < 100 nM
O=C(O)c1cccc2c1OB(O)[C@@H](NC(=O)C1(c3ccccc3)CC1)C2 [Example 1, (R)-2-hydroxy-3-(1-phenylcyclopropanecarboxamido)-3,4-dihydro-2H-benzo[e][1,2]oxaborinine-8-carboxylic acid] | < 100 nM | 100 to 1000 nM | < 100 nM | < 100 nM | < 100 nM
CN(C)Cc1ccc(C(=O)N[C@H]2Cc3cccc(C(=O)O)c3OB2O)cc1N [Example 18, (R)-3-(3-amino-4-((dimethylamino)methyl)benzamido)-2-hydroxy-3,4-dihydro-2H-benzo[e][1,2]oxaborinine-8-carboxylic acid] | < 100 nM | 100 to 1000 nM | < 100 nM | < 100 nM | < 100 nM
N=C(N)N1Cc2ccc(C(=O)N[C@H]3Cc4cccc(C(=O)O)c4OB3O)cc2C1 [Example 16, (R)-3-(2-carbamimidoylisoindoline-5-carboxamido)-2-hydroxy-3,4-dihydro-2H-benzo[e][1,2]oxaborinine-8-carboxylic acid] | < 100 nM | < 100 nM | < 100 nM | < 100 nM | < 100 nM
NCCN1Cc2ccc(C(=O)N[C@H]3Cc4cccc(C(=O)O)c4OB3O)cc2C1 [Example 11, (R)-3-(2-(2-aminoethyl)isoindoline-5-carboxamido)-2-hydroxy-3,4-dihydro-2H-benzo[e][1,2]oxaborinine-8-carboxylic acid] | < 100 nM | 100 to 1000 nM | < 100 nM | < 100 nM | < 100 nM
NCc1cnc(C(=O)N[C@H]2Cc3cccc(C(=O)O)c3OB2O)cc1CN [Example 63] | 100 to 1000 nM | < 100 nM | < 100 nM | < 100 nM | < 100 nM
O=C(O)c1cccc2c1OB(O)[C@@H](NC(=O)c1cccc3[nH]ccc13)C2 [Example 32, (R)-2-Hydroxy-3-[(1H-indole-4-carbonyl)-amino]-3,4-dihydro-2H-benzo[e][1,2]oxaborinine-8-carboxylic acid] | < 100 nM | 100 to 1000 nM | < 100 nM | < 100 nM | < 100 nM

— patent publication US9376454B2, “Beta-lactamase inhibitors” (priority 2013, dated 2016)
